Measurements: PMC4268698, “Cell type-specific delivery of short interfering RNAs by dye-functionalised theranostic nanoparticles” (Nature Communications, 2014)
Entries after “also recorded” stand apart in the source; their conditions may differ.

Tests used:
[1] = In vivo pharmacokinetics of polymethine dyes (organ-specific clearance by liver and kidneys); set-up: species or system male Wistar rats; conditions: i.v., rats
Method: Catheters were placed in the jugular vein, carotid artery, bladder and bile duct of male Wistar rats (300–400 g body weight (BW)). After i.v. administration of DY-635 (13 pmol per g BW), DY-630 (13 pmol per g BW), DY-750 (13 pmol per gBW), DY-751 (13 pmol per g BW), DY-731 (13 pmol per g BW), DY-777 (14 pmol per g BW), DY-682 (13 pmol per g BW), DY-704 (17 pmol per g BW), DY-732 (13 pmol per g BW), DY-754 (17 pmol per g BW), DY-678 (14 pmol per g BW), DY-778 (14 pmol per g BW) or 6.5 μg DY625-[NP] per g BW, bile was collected every 5 min and 200 μl arterial blood taken at defined times into heparinised tubes. DY-635 fluorescence in bile and plasma was measured in a spectrofluorometer (FluoStar Optima, BMG Labtech). Results are mean±s.e.m. of three biological replicates.

NTCP = target: T1, NTCP (Homo sapiens, UniProt Q14973); assay: DY-635 interaction with hepatic basolateral transporters, transfected HEK293 cells, radio-labelled substrate uptake; type: cell-based; conditions: 10 μM DY-635; substrate [3H]estrone-sulfate 10 μM; transfected HEK cells
T1 construct: expressed in transfected cells; host or cells: HEK293 (pcDNA5 vector)
T1 sequence (Q14973 1-349): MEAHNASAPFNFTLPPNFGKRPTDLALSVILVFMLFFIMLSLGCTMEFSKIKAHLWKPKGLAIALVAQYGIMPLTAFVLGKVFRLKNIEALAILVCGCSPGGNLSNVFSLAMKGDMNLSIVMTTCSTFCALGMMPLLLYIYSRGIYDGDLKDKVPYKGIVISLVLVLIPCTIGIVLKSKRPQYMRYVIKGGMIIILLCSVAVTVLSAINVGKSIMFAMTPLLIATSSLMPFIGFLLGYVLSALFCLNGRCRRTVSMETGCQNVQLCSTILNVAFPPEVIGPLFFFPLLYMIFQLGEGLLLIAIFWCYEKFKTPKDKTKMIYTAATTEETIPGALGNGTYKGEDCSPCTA
Method: (§1) HEK293 cells were transfected with OATP1B1 (SLCO1B1, NM_006446), OATP1B3 (SLCO1B3, NM_019844), OCT1 (SLC22A1, NM_003057.2), OAT2 (SLC22A7, NM_006672), NTCP (SLC10A1, NM_003049), NaDC3 (SLC13A3, AF154121) or the empty vector (pcDNA5).Transfected HEK293 cells were seeded at 2 × 10^5 cells per well and cultured for 3 days.

OATP1B1 = target: T2, OATP1B1 (Homo sapiens, UniProt Q9Y6L6); assay: as above; type: cell-based; conditions: 10 μM DY-635 vs rifampicin 20 μM; substrate [3H]estrone-sulfate 30 nM; transfected HEK cells
T2 construct: expressed in transfected cells; host or cells: HEK293 (pcDNA5 vector)
T2 sequence (Q9Y6L6 1-691): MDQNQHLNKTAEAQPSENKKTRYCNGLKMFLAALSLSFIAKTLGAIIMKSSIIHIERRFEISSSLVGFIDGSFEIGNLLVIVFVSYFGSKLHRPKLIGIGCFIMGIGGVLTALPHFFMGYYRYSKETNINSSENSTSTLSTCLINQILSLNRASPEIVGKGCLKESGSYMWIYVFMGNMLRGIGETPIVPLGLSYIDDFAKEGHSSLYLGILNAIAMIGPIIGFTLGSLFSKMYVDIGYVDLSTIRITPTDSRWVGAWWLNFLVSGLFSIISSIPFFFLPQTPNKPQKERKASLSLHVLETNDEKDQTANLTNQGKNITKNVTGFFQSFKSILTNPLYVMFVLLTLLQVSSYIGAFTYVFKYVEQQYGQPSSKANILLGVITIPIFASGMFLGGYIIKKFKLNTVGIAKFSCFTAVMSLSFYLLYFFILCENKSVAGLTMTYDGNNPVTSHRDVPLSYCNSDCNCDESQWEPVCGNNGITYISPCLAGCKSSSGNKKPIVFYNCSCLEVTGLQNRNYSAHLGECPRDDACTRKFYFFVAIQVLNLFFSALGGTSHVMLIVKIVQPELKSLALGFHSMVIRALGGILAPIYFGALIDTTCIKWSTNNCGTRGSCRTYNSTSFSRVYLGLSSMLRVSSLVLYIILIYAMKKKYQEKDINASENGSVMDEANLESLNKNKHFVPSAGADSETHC
Method: as §1

OATP1B3 = target: T3, OATP1B3 (Homo sapiens, UniProt Q9NPD5); assay: as above; type: cell-based; conditions: 10 μM DY-635 vs rifampicin 20 μM; substrate [3H]sulfobromphthalein 50 nM; transfected HEK cells
T3 construct: expressed in transfected cells; host or cells: HEK293 (pcDNA5 vector)
T3 sequence (Q9NPD5 1-702): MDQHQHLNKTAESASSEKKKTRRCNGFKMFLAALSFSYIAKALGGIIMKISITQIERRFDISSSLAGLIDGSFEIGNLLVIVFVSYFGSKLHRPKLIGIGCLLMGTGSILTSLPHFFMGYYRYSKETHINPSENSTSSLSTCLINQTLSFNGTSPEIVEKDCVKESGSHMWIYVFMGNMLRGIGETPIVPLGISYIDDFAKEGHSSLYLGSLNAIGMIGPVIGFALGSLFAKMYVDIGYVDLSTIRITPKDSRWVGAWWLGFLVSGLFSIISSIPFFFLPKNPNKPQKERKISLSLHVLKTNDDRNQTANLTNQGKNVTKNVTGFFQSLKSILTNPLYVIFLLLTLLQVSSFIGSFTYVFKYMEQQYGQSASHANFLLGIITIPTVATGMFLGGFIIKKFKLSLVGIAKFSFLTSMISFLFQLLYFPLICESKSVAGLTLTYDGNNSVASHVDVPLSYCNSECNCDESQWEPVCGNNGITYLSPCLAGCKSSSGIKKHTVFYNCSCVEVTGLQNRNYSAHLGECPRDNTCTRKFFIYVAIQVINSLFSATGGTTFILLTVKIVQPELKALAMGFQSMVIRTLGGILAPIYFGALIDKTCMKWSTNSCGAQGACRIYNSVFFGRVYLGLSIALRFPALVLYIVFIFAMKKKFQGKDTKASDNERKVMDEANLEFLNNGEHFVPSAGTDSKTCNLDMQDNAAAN
Method: as §1

[2] = system: primary murine hepatocytes; assay: Uptake of free DY-635 by primary hepatocytes, with and without cyclosporine A; type: cell-based, mouse; conditions: 37 or 4 °C
Method: This was then diluted 1:1 (v/v) with either 400 nM DY-635 (amino-terminated) or 10 μg NP in KHB. […] Lysates were analysed on a Tecan plate reader (Tecan) (excitation: 488±09 nm, emission 530±20 nm). […] Data were normalised to cellular protein (Bradford).

liver parenchyma = assay: Intravital microscopy of liver (fluorescence decay, cellular association); type: in vivo, male FVB/NRj mice; conditions: Cy5 channel, after injection
Method: IVM was performed using an inverted epifluorescence microscope (AxioObserverR Z1; Zeiss) as described previously.

HepaRG and HUVEC cells = assay: Microfluidic-assisted organoid, co-culture of HepaRG and HUVEC, nanoparticle uptake; type: cell-based, human
Method: HUVEC and HepaRG cells were co-cultured using a microfluidic-supported chip. […] 2.7 × 10^4 cells per cm^2 were seeded in William’s E medium supplemented with 10% foetal bovine serum, 100 U ml^−1 penicillin, 100 g ml^−1 streptomycin, 5 U ml^−1 insulin and 5 × 10^−5 M hydrocortisone-hemisuccinate and cultured for 2 weeks. For HepaRG differentiation, cells were cultured with 2% dimethylsulfoxide for two more weeks. Differentiated HepaRG cells were seeded at 4,000 cells per mm^2 at the bottom of the chip cavities beneath the membrane. 300,000 HUVEC (4,300 cells per mm^2) were seeded above the membrane and co-cultured with differentiated HepaRG cells in for 24 h before the uptake experiments. Cells were perfused with 50 μg ml^−1 NPs in Williams E medium. […] For each time point three pictures were taken and 200 region of interest (ROI) per picture were analysed.

| affinity to NTCP (NTCP) | uptake of DY-635 by primary hepatocytes [2] | fluorescence decay over liver parenchyma (liver parenchyma) | Structure (SMILES) | route of elimination (net organ-specific clearance) [1] | affinity to OATP1B1 compared with FDA-proposed competitor (OATP1B1) | affinity to OATP1B3 compared with FDA-proposed competitor (OATP1B3) | effect on uptake of DY-635[NP](−) (HepaRG and HUVEC cells) |
| --- | --- | --- | --- | --- | --- | --- | --- |
| moderate affinity | rapid, temperature sensitive | exponential decay | CC(C)(C)c1cc(/C=C/C=C2/N(CCCCCC(=O)NCCN)c3ccc(S(=O)(=O)O)cc3C2(C)C)c2cc3c4c(c2[o+]1)CCCN4CCC3 [DY-635] | excreted preferentially via the bile; also recorded: preferential hepatobiliary clearance | substantially exceeded that of the Food and Drug Administration (FDA) proposed ligand for drug development, rifampicin | substantially exceeded that of the Food and Drug Administration (FDA) proposed ligand for drug development, rifampicin | – |
| – | – | – | O=C1NC(=NS(=O)(=O)c2cccc3ccccc23)S/C1=C\c1ccc(Br)cc1 [Pitstop-2] | – | – | – | inhibition of NP uptake |
